Test results reported in patent US5861475A, “Compositions and methods for the inhibition of phagocytes” (Research Corporation Technologies, Inc., priority 1996, dated 1999).
Where no end group is shown, it is not given here.

Experiments:
PMN [1] = test: PMN cytosolic calcium concentration (Indo-loaded PMN); assay type: cell-based, human
[2] = tested on: polymorphonuclear neutrophils (PMN); assay type: cell-based; settings: 10 nM human recombinant C5a; cells concomitantly exposed to peptide and agonist; read-out: IC50 for C5a-induced chemotaxis
Procedure: Whole blood was obtained from a normal human volunteer population and PMN were isolated by ficoll-hypaque gradient centrifugation followed dextran sedimentation, as described by Cooper et al., (1991).
The degree of inhibition of PMN chemotaxis by natural purified inhibitor or synthetic peptides was determined as described by Cooper et al. (1991) using 100 nM formyl-methionyl-leucyl-phenylalanine (fMLP), 10 nM human recombinant C5a or 10 nM leukotriene B4 and multiwell chemotaxis chambers (Neuroprobe Inc., Bethesda, Md.) employing nitrocellulose membranes. Isoelectric focused fractions or HPLC elution fractions were diluted 1:1000 in a final concentration of the above agonists. Controls included buffer alone or C5a diluted in buffer alone.
22 μl of samples were placed in bottom wells of the chemotaxis chamber, a nitrocellulose membrane with 3 μm pores was overlaid as was a rubber gasket. […] Chemotaxis was assessed by comparing the maximal distance migrated to agonist alone or in the presence of an irrelevant peptide (μm minus migration to buffer alone) and comparing to the distance migrated to agonist plus elution fractions or synthetic peptides. The percentage of total cells migrating 10 μm increments from 0 to 120 μm was also determined by image analysis (Olympus Instruments) and treatment groups were compared to controls. […]

PMN [3] = test: PMN viability by LDH release
Procedure: PMN viability after exposure to NIP (seq id no:1) or control peptide for varying amounts of time was assessed by measuring LDH release using a commercially available kit (Sigma).

COc1cc(N(CC(=O)OCOC(C)=O)CC(=O)OCOC(C)=O)c2nc(COc3cc(C)ccc3N(CC(=O)OCOC(C)=O)CC(=O)OCOC(C)=O)ccc2c1 [Quin 2 AM]
buffering of rises in cytosolic calcium concentrations (PMN [1]; 10 μM, after 1 μM fMLP stimulation): significantly buffered

EGSYFFGDNA [NIP-Arg, Glu-Gly-Ser-Tyr-Phe-Phe-Gly-Asp-Asn-Ala]
IC50 [2]: 6 µM

REGSYFFGDNA [NIP, Arg-Glu-Gly-Ser-Tyr-Phe-Phe-Gly-Asp-Asn-Ala]
[LDH] of supernatant (PMN [3]; 5 μM, 5 min exposure): 37.2 ± 6.3
[LDH] of supernatant (PMN [3]; 5 μM, 15 min exposure): 40.8 ± 3.7
[LDH] of supernatant (PMN [3]; 5 μM, 30 min exposure): 30.2 ± 4.25
[LDH] of supernatant (PMN [3]; 5 μM, 60 min exposure): 35 ± 5.5
cellular viability as determined by LDH release (PMN [3]; concentrations that inhibited chemotaxis and oxidant production): did not significantly alter
IC50 [2]: 2 µM

SNRGFAYFDEG [Control peptide, Ser-Asn-Arg-Gly-Phe-Ala-Tyr-Phe-Asp-Glu-Gly, reference compound]
[LDH] of supernatant (PMN [3]; 5 μM, 60 min exposure): 39.2 ± 6.5

Triton [reference compound]
[LDH] of supernatant (PMN [3]; 0.1%, 5 min exposure): 252 ± 6.5

pertussis toxin
ionomycin-induced rise in cytosolic calcium (PMN [1]; pertussis toxin pretreatment): no effect
rise in cytosolic calcium concentration induced by 1 μM FMLP (PMN [1]; pertussis toxin pretreatment): Attenuation
